# Legend:
# human PTP-1B (1-321) = molecular target: T1, human PTP-1B (1-321) (Homo sapiens, UniProt P18031); experiment: Determination of PTP-1B enzyme inhibitory activity (phosphopeptide substrate, malachite green); type: biochemical; details: each compound 100 μM; peptide substrate, 37° C., 10 min
# T1 construct: ID No.2; made in house; host or cells: Escherichia coli BL21 DE3 (plasmid pET-hPTP1B (1-321), vector pET-11c)
# T1 sequence (P18031 1-321): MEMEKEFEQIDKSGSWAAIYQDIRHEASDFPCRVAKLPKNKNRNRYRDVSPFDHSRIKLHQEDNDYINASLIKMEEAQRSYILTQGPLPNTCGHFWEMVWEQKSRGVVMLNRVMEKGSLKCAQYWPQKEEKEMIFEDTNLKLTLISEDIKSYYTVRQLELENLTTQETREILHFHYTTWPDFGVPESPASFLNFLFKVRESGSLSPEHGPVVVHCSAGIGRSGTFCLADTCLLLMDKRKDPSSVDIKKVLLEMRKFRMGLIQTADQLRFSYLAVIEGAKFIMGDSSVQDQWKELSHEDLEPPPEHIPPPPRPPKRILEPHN
# Source text: As the substrates for PTP-1B enzyme reaction, synthetic peptides consisting of the following amino acid sequence: • Thr-Arg-Asp-Ile-Tyr (PO4)-Glu-Thr-Asp-Tyr (PO4)-Tyr (PO4)-Arg-Lys (SEQ; NO. 5), wherein 3 tyrosines had been all phosphorylated, were used (synthesis committed to Shimadzu Scientific Research Inc. (Chiyoda-ku, Tokyo)). [According to the amino acid numbers based on the report of Ullrich et al. (Nature, vol. 313, pages 756-761, 1985), this amino acid sequence corresponds to Nos. 1142-1153 of insulin receptor, and corresponds to Nos. 1169-1180 in the amino acid sequence of the insulin receptor precursor registered in Genbank No. X02160.]
# This peptide substrate and a PTP-1B enzyme were reacted and the enzyme activity was determined by quantitation of inorganic phosphoric acid released from the substrate by the reaction. The decreased enzyme activity in the presence of a test compound during the enzyme reaction was taken as the enzyme inhibitory activity. Specifically, the following method was performed.
# A peptide substrate (synthesis committed to Shimadzu Scientific Research Inc.) was dissolved in a buffer (20 mM imidazole (pH 7.0), 50 mM NaCl, 5 mM DTT and 2.5 mM EDTA) to 300 μM, and cryopreserved.
# The PTP-1B solution obtained earlier was diluted with a buffer (20 mM imidazole (pH 7.0), 50 mM NaCl, 5 mM DTT, 2.5 mM EDTA, and 0.05% Nonidet P-40) to 200 ng/ml.
# A 96 well microtiter plate [Costar 3695 (half area) Corning] was used and a buffer [39 μl, 20 mM imidazole (pH 7.0), 50 mM NaCl, 5 mM DTT, 2.5 mM EDTA], a PTP-1B enzyme solution (5 μl), and a solution (5 mM, 1 μl) of a test compound in dimethylsulfoxide (DMSO) were added to each well. As a control, solvent (DMSO, 1 μl) was added instead of the DMSO solution of test compound. After preincubation at 37° C. for about 10 min, a peptide substrate solution (300 μM, […]) was added and the mixture was incubated at 37° C. for 10 min.
# For quantitation of released inorganic phosphoric acid, malachite green solution (90 μl, manufactured by BIOMOL Research Laboratories, Inc.) was added to each well, and the mixture was left standing at room temperature for about 10 min and the absorbance at 650 nm was measured with a microplate reader. Linearity was mostly observed between the absorbance and the phosphoric acid concentration generally within the absorbance range of from 0.05 to 0.6 (phosphoric acid from about […]) under these conditions.
# The PTP-1B inhibitory activity of the test compound was obtained by the following calculation formula. Inhibitory activity (%)=[…]
# [1] = molecular target: T2, GAL4-PPARγ chimeric receptor (human PPARγ ligand binding site) (Homo sapiens, UniProt P37231); experiment: Determination of PPARγ activation ability (GAL4-PPARγ luciferase reporter assay in HEK293 cells); type: cell-based; details: each compound 1 μM; amount of luminescence relative to control; value greater than 1 = activation ability
# T2 construct: a GAL4-PPARγ chimeric receptor containing amino acid Nos. 1-147 of yeast transcription factor GAL4 on the amino terminal and Nos. 175-475; expressed in transfected cells; host or cells: HEK293 (plasmid pM-PPARγ co-transfected with reporter pFR-Luc)
# T2 sequence (P37231 with tags, fused parts or gaps): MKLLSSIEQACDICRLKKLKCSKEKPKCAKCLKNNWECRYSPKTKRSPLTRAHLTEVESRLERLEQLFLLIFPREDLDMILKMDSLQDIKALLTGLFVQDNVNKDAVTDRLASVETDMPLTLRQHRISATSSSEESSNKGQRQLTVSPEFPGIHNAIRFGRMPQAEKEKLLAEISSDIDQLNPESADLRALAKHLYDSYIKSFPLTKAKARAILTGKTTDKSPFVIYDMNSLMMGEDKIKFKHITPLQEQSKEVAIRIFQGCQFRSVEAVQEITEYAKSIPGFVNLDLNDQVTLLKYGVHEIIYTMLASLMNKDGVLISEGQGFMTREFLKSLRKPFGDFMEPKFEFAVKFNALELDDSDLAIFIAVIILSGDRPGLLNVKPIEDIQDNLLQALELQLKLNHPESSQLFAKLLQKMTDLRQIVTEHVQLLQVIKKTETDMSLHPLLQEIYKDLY
# Protocol: As a method for determining the ability of a compound to activate PPARγ (hereinafter PPARγ activation ability), a test by a reporter assay was performed with reference to the report of Kliewer et al. (Journal of Biological Chemistry, 1995, vol. 270(22), p. 12953-12956).
# With reference to the report of Kliewer, a gene expressing a GAL4-PPARγ receptor, wherein human PPARγ ligand binding site (corresponding to about 300 amino acids on carboxy terminal) is bound with a DNA binding site (corresponding to 147 amino acids on amino terminal region) of yeast transcription factor GAL4, was prepared.
# The plasmid pM-PPARγ obtained earlier, and plasmid pFR-Luc purchased from [sequence] CLONING SYSTEMS were each dissolved in desalted water to a concentration of 1 mg/1 ml.
# A human fetal kidney-derived cell line HEK293 (American Type Culture Collection CRL-1573) was sown in a 75 cm^2 culture flask, and cultured in Dulbecco's Modified Eagle medium containing 10% fetal bovine serum (hereinafter a medium) under the conditions of 37° C., 5% CO2 until it reached nearly 80% confluent.
# Using 7.5 μg of plasmid pM-PPARγ and 7.5 μg of plasmid pFR-Luc, both per flask, as well as a FuGENE6 transfection reagent (manufactured by Rosch Diagnostics) the plasmids were transfected to HEK293 cells and cultured overnight.
# The next day, the cells were treated with trypsin and recovered. A 96 well plate coated with poly-L-lysine (IWAKI poly-L-lysine coated 96 well plate, manufactured by ASAHI TECHNOGLASS) was prepared, the cells were sown at about 50,000 cells/well, 90 μl, using the medium and cultured overnight.
# The test compound was dissolved in DMSO at a concentration of 10 mM. This was diluted 1,000-fold with the medium, and 10 μl therefrom was added to the well in which cells were growing. The treatment concentration in the cell was 1 μM. After the addition, the cells were cultured overnight.
# The next day, the medium was removed, and the cells were washed with phosphate buffered saline containing 1 mM magnesium and 1 mM calcium chloride. PicaGene LT FR manufactured by Wako Pure Chemical Industries, Ltd. was diluted 2-fold with the same saline and the solution was added to each well by 200 μl. After standing the mixture for about 1 hr, it was stirred and 180 μl thereof was taken from each well and placed in a white 96 well plate (OptiPlate 96, manufactured by Packard), applied to TopCount (manufactured by Packard) and the amount of luminescence of each well was measured for 6 seconds.
# The PPARγ activation ability of the test compound was determined by the following calculation formula: PPARγ activation ability=(amount of luminescence [in the presence of each compound (1 μM)]}/[amount of luminescence (control)]
# male Zucker Fatty rats = experiment: Expression suppressive action on edema and the like: 2-week oral administration, insulin and blood cell parameters; type: in vivo, rat
# Source text: For the test, male Zucker Fatty rats (6-week-old, Japan SLC) were used. During the acclimation period for 1 week and test period, feed (FR-2 (Funabashi Farm)) and water were freely given.
# Blood was taken from the tail vain using a heparin-coated hematocrit tube and an EDTA-added hematocrit tube, and a part thereof was preserved as a whole blood and the rest was centrifuged and plasma was collected and subjected to the measurement of biochemical parameter (insulin). For insulin measurement, a rat Insulin RIA kit (US Linco) was used, and all the samples were collectively measured after the completion of administration. The whole blood sample was subjected to the measurement of blood cell parameters (erythrocyte concentration, hemoglobin concentration) using an automatic blood cell measurement apparatus (KX-21N, Sysmex Corporation).
# At the beginning of the test, blood was taken from all the rats, and randomly grouped to make the parameters (body weight, erythrocyte, hemoglobin and the like) almost the same. […] The start of the administration was day 0, and the animals were fasted for about 16 hr from the evening of day 13. Blood was taken and measured for each parameter.
SMILES,inhibitory activity (%) (human PTP-1B (1-321)),PPARγ activation ability [1],further results
"CC(C)(C)N.CC=CC=CC(=O)N1Cc2cc(OCCc3nc(/C=C/C4CCCC4)oc3C)ccc2C[C@H]1C(=O)O (stereo in doubt) [Reference Example 22, 7-{2-[2-(trans-2-cyclopentylvinyl)-5-methyloxazol-4-yl]ethoxy}-2-(2,4-hexadienoyl)-1,2,3,4-tetrahydroisoquinoline-(3S)-carboxylic acid tert-butylamine Salt]",95,5.1,
"CC(C)(C)N.CCCCC=CC(=O)N1Cc2cc(OCCc3nc(/C=C/CC(C)C)oc3C)ccc2C[C@H]1C(=O)O (stereo in doubt) [Reference Example 24, 2-(2-heptenoyl)-7-{2-[5-methyl-2-(4-methyl-trans-1-penten-1-yl)oxazol-4-yl]ethoxy}-1,2,3,4-tetrahydroisoquinoline-(3S)-carboxylic acid tert-butylamine Salt]",92,9.4,
"CC(C)(C)N.CC=CC=CC(=O)N1Cc2cc(OCCc3nc(/C=C/CCCC)oc3C)ccc2C[C@H]1C(=O)O (stereo in doubt) [Reference Example 27, 2-(2,4-hexadienoyl)-7-{2-[2-(trans-1-hexen-1-yl)-5-methyloxazol-4-yl]ethoxy}-1,2,3,4-tetrahydroisoquinoline-(3S)-carboxylic acid tert-butylamine Salt]",88,5.9,
"CC(C)(C)N.CC=CC=CC(=O)N1Cc2cc(OCCc3nc(/C=C/CCC(C)C)oc3C)ccc2C[C@H]1C(=O)O (stereo in doubt) [Reference Example 30, 2-(2,4-hexadienoyl)-7-{2-[5-methyl-2-(5-methyl-trans-1-hexen-1-yl)oxazol-4-yl]ethoxy}-1,2,3,4-tetrahydroisoquinoline-(3S)-carboxylic acid tert-butylamine Salt]",96,6.2,"hemoglobin concentration (male Zucker Fatty rats; 30 mg/kg, po, once-daily, 2 consecutive weeks, FIG. 1): somewhat lower than those of the control group, but maintained at a remarkably high level as compared to the rosiglitazone administration group; insulin lowering action (blood insulin concentration) (male Zucker Fatty rats; 30 mg/kg, po, once-daily, 2 consecutive weeks, FIG. 2): equivalent to that of the rosiglitazone; erythrocyte concentration (male Zucker Fatty rats; 30 mg/kg, po, once-daily, 2 consecutive weeks, FIG. 3): somewhat lower than those of the control group, but maintained at a remarkably high level as compared to the rosiglitazone administration group; blood dilution (decrease in the concentrations of hemoglobin and erythrocyte) (male Zucker Fatty rats; compared with rosiglitazone administration group): markedly suppressed"
"CC(C)(C)N.CC=CC=CC(=O)N1Cc2cc(OCCc3nc(/C(C)=C/CCC)oc3C)ccc2C[C@H]1C(=O)O (stereo in doubt) [Reference Example 33, 2-(2,4-hexadienoyl)-7-{2-[5-methyl-2-(1-methyl-trans-1-penten-1-yl)oxazol-4-yl]ethoxy}-1,2,3,4-tetrahydroisoquinoline-(3S)-carboxylic acid tert-butylamine Salt]",92,6.5,
"CC(C)(C)N.CC=CC=CC(=O)N1Cc2cc(OCCc3nc(/C=C/C4CCCCC4)oc3C)ccc2C[C@H]1C(=O)O (stereo in doubt) [Reference Example 40, 7-{2-[2-(trans-2-cyclohexylvinyl)-5-methyloxazol-4-yl]ethoxy}-2-(2,4-hexadienoyl)-1,2,3,4-tetrahydroisoquinoline-(3S)-carboxylic acid tert-butylamine Salt]",90,5.4,
"CC(C)(C)N.CC=CC=CC(=O)N1Cc2cc(OCCc3nc(/C=C/CCCF)oc3C)ccc2C[C@H]1C(=O)O (stereo in doubt) [Reference Example 66, 7-{2-[2-(5-fluoro-trans-1-penten-1-yl)-5-methyloxazol-4-yl]ethoxy}-2-(2,4-hexadienoyl)-1,2,3,4-tetrahydroisoquinoline-(3S)-carboxylic Acid tert-butylamine Salt]",80,3.0,
"CC(C)(C)N.CC=CC=CC(=O)N1Cc2cc(OCCc3coc(/C(C)=C/CCC)n3)ccc2C[C@H]1C(=O)O (stereo in doubt) [Reference Example 83, 2-(2,4-hexadienoyl)-7-{2-[2-(1-methyl-trans-1-penten-1-yl)oxazol-4-yl]ethoxy}-1,2,3,4-tetrahydroisoquinoline-(3S)-carboxylic Acid-tert-butylamine Salt]",82,3.1,
"CN(CCOc1ccc(CC2SC(=O)NC2=O)cc1)c1ccccn1 (stereo not drawn) [Rosiglitazone, reference compound]",,,inhibition at 100 µM (human PTP-1B (1-321)): < 10%

# Reference: patent publication US7718377B2, “Insulin resistance curative and method of screening the same” (Kyoto Pharmaceutical Industries, Ltd., priority 2003, dated 2010)
